Results published in patent US12083093B2, “Composition for preventing or treating cellular senescence-related diseases comprising salinomycin as effective component” (RESEARCH COOPERATION FOUNDATION OF YEUNGNAM UNIVERSITY, priority 2018, dated 2024).

Tests used:
[1] = system: premature senescent vascular endothelial cells (HUVEC) by doxorubicin; experiment: CCK-8 cell survival, doxorubicin-induced premature senescent HUVEC; assay type: cell-based, human; details: 100 nM, 4 days; compared to DMSO-treated group; FIG. 3C
Description: (§1) Each cell was treated in a serum-free culture solution containing doxorubicin (0.5 μM) for 4 hours. After washing the cells with a serum-free culture solution, the cells were cultured for 4 days in a culture solution containing 10% FBS, and then cellular aging was confirmed by measuring the level of senescence by staining with senescence-associated beta galactosidase.
(§2) After each sample was dissolved in DMSO, young cells, replicative senescent cells and senescent cells in which premature aging was induced by treating with doxorubicin were treated with 100 nM salinomycin, 100 nM rapamycin, 100 nM ABT263. After incubation for 4 days in a 37° C., 5% CO2 incubator, the degree of cell survival was confirmed by CCK-8 analysis, the degree of cellular aging was confirmed by senescence-associated β-galactosidase (SAβG) staining, p53 and p16 protein expression analysis.
Young cells (1×10^3 cells/well) or senescent cells (2×10^3 cells/well) were dispensed into a 96-well plate, and cultured overnight in a 37° C., 5% CO2 incubator. Salinomycin, ABT263 and rapamycin were treated at each concentration, and then incubated for 4 days in a 37° C., 5% CO2 incubator. […] Then, the absorbance was measured at 450 nm using a Microplate reader.
The degree of cell survival was expressed as a relative value for the absorbance of the control group treated with only DMSO as 100%. […]

[2] = system: renal fibrosis induced by renal ischemia-reperfusion injury; assay type: in vivo, C57BL/6J mice; details: compared to PBS group
Description: Animal experiments were performed with the approval of the Animal Experimental Ethics Committee, Yeungnam University College of Medicine (YUMC-AEC2018-024). C57BL/6J 8-week-old male mice were anesthetized by intraperitoneal injection of 2.5% Avertin (0.025 ml/g body weight). The mouse was placed on a hot plate at 37° C., and the left flank was incised to expose the left kidney. The renal arteriovenous blood vessels were ligated with a microaneurism clamp (Roboz), and whether the blood vessels were blocked or not was confirmed by the color of the kidneys. During the induction of ischemia, the body temperature of the mice was maintained at 36.5-37.5° C. After 35 minutes, the clamp was removed and it was confirmed that reperfusion occurred.
As a control, renal arteriovenous vessels were not ligated, and the rest was performed in the same manner as above. From 4 days after ischemia-reperfusion injury, 2.5 μl of 10 mM salinomycin was diluted in 100 μl of phosphate buffer solution at intervals of 2 days and injected into the abdominal cavity 3 times (Sal group). […] Three mice were used for each group.
The left kidney in which ischemia-reperfusion injury was induced, was excised in half and fixed in 10% formalin solution or stored frozen in liquid nitrogen.
In order to evaluate kidney function due to ischemia-reperfusion injury, creatinine and blood urea nitrogen (BUN) concentrations in plasma and urine were measured.
Blood was collected from the retro-orbital vascular plexus of the mouse using a heparin capillary tube, and plasma was separated. Plasma creatinine was measured by QuantiChrom™ creatinine assay kit (DICT-500; BioAssay Systems, Hayward, CA, USA), and BUN was investigated by measuring absorbance at 490 nm and 450 nm by a spectrophotometer, respectively by BUN colorimetric detection kit (Arbor Assays, Ann Arbor, Michigan, USA). […]
RIPA buffer was added to the tissue and pulverized with WiseTis homogenizer HG-15D (DAIHAN Scientific, Seoul, South Korea). Centrifugation was performed at 12,000 rpm at 4° C. for 20 minutes, and the supernatant was transferred to a new tube. The protein concentration of the supernatant was quantified by the BCA method.
After electrophoresis (SDS-PAGE) of 30 μg of protein, Western blot analysis was performed. After electrophoresis, the protein was transferred from the gel to a polyvinylidene fluoride membrane (Pall Corporation). The membrane was treated with a 5% Difco™ skim milk solution (Becton, Dickinson and Company, USA) for 2 hours at room temperature, and the primary antibody was added, followed by reaction at room temperature for 2 hours.
As the primary antibody, anti-p53 antibody, anti-p16 antibody, anti-actin antibody and anti-GAPDH antibody were purchased from Santa Cruz Biotechnology, Inc. Anti-phosphorylated-Rb antibody was obtained from New England Biolabs (Ipswich, MA, USA), and the anti-SOD2 antibody and anti-catalase antibody were obtained from Bioworld Technology Inc. (Louis Park, MN, USA), anti-HNE antibody, anti-α-smooth muscle actin antibody, and anti-type I collagen antibody were purchased from Abcam (Cambridge, UK).
The tissue fixed in 10% formalin solution was embedded with paraffin and cut into 4 μm to prepare a tissue sample. After removing paraffin from the tissue sample, hematoxylin-eosin staining, trichrome staining, and PAS staining were performed.
The degree of fibrosis was measured by analyzing the degree of collagen staining using the i-Solution™ software program (IMT Inc., Canada) after trichrome staining and the degree of cell senescence in tissue samples was investigated by staining lipofuscin with Sudan black B (Viegas M S, et al., European journal of histochemistry: EJH. 2007). The degree of peritoneal fibrosis was confirmed by measuring the submesothelial thickness of the peritoneal mesothelial cell layer using the NIH Image J program. […]

[3] = system: premature senescent renal tubular cells (HK2) by doxorubicin; experiment: SAβG activity staining, doxorubicin-induced premature senescent HK2 cells; assay type: cell-based, human; details: 100 nM, 4 days; compared to DMSO-treated group; FIG. 6A-6C
Description: as §1, §2
The cells were washed with 1× phosphate buffer solution, and fixed with a phosphate buffer solution containing 3.7% (v/v) paraformaldehyde. After adding 1 mg/ml 5-bromo-4-chloro-3-indolyl-β-D-galactoside, 40 mM citric acid-sodium phosphate (pH 6.0), 5 mM potassium ferricyanide, 5 mM potassium ferrocyanide, 150 mM NaCl, and 2 mM MgCl2 solution, it was reacted at 37° C. for 18 hours. It was stained with eosin as a control stain and cells stained blue in the cytoplasm were identified using an optical microscope. […]

[4] = kidney tissue, antioxidant enzyme
[5] = kidney tissue, fibrosis marker, FIG. 7L, 7M

SMILES: CC[C@@H](C(=O)[C@@H](C)[C@@H](O)[C@H](C)[C@@H]1O[C@@H]([C@@H](CC)C(=O)O)CC[C@@H]1C)[C@H]1O[C@]2(C=C[C@@H](O)[C@]3(CC[C@@](C)([C@H]4CC[C@](O)(CC)[C@H](C)O4)O3)O2)[C@H](C)C[C@@H]1C [salinomycin]
- cell survival (CCK-8) [1]: no difference
- plasma creatinine ([2]; i.p. 3 times at 2-day intervals from day 4, FIG. 7C): decreased
- plasma BUN ([2]; i.p. 3 times at 2-day intervals from day 4, FIG. 7D): decreased
- expression of SOD2 (Western blot) [2, 4]: increased
- expression of catalase (Western blot) [2, 4]: increased
- expression of pRb (Western blot) ([2]; kidney tissue, cell proliferation marker, FIG. 7L, 7M): decreased
- expression of p16 (Western blot) ([2]; kidney tissue, cellular aging marker, FIG. 7K): marked decrease
- expression of p53 (Western blot) ([2]; kidney tissue, cellular aging marker, FIG. 7L, 7M): decreased
- Sudan Black B (lipofuscin) staining intensity ([2]; kidney tissue, cellular senescence, FIG. 7G): decreased
- expression of type 1 collagen (COL1) (Western blot) [2, 5]: decreased
- expression of α-SMA (Western blot) [2, 5]: decreased
- expression of 4-HNE (Western blot) ([2]; kidney tissue, oxidative stress marker, FIG. 7K): marked decrease
- lipid peroxides in tissue ([2]; kidney tissue, FIG. 7H): significantly reduced
- MDA in tissue ([2]; kidney tissue, FIG. 7I): significantly reduced
- superoxides in tissue ([2]; kidney tissue, FIG. 7J): decreased
- degree of tissue fibrosis by trichrome staining ([2]; kidney, FIG. 7E, 7F): significantly reduced
- damage to the renal tubules ([2]; renal tissue specimen, FIG. 7E, 7F): significantly reduced
- SaβG activity [3]: no change
